Measurements: patent US10787640B2, “Producing mesodermal cell types and methods of using the same” (The Board of Trustees of the Leland Stanford Junior …, priority 2015, dated 2020)

How the values were obtained:
Assay type in all cases: cell-based, human
lateral mesoderm = test: Forelimb versus hindlimb progenitor specification from lateral mesoderm; details: for competence of lateral mesoderm for forelimb fate: lateral mesoderm induced in presence of retinoid antagonists
Method: Undifferentiated hPSCs (wild-type H7 as well as TBX5-Venus V19-2 H9 hESCs) were maintained in mTeSR1 media on Geltrex-coated plates. As described, they were differentiated into mid primitive streak for 24 hours (D0-1; 30 ng/mL Activin+40 ng/mL BMP4+6 μM CHIR99021+20 ng/mL FGF2+100 nM PIK90) and subsequently differentiated into lateral mesoderm (D1-2; 1 μM A-83-01+30 ng/mL BMP4+1 μM C59), with the inclusion of 50 nM of TTNPB or 2 μM ATRA on D1-2 for trunk lateral mesoderm that was subsequently competent for forelimb differentiation.
Day 2 trunk lateral mesoderm was differentiated into day 3 forelimb progenitors (D2-3; 1 μM A-83-01+1 μM DMH1+3 μM CHIR99021). By contrast, day 2 non-trunk lateral mesoderm was differentiated into day 3 hindlimb progenitors (D2-3; 25 ng/mL Activin+1 μM DMH1+3 μM CHIR99021).

day 2 paraxial mesoderm = test: Early somite progenitor formation from paraxial mesoderm, qPCR; details: 24 hours
Method: Day 2 paraxial mesoderm was briefly washed (DMEM/F12) and further differentiated into day 3 early somite/somitomere precursors for 24 hours (1 μM A-83-01+250 nM LDN-193189+1 μM C59+500 nM PD0325901). Subsequently, day 3 early somites were dorsoventrally patterned into either ventral somites/sclerotome (5 nM 21K+1 μM C59) or dorsal somites/dermomyotome (3 μM CHIR99021+150 nM Vismodegib). Sclerotome induction was conducted for 48-72 hours (leading to day 5-6 ventral somite progenitors). For dermomyotome induction, sometimes dermomyotome was induced in the presence of 50 ng/mL BMP4 to upregulate PAX7 after 48 hours of BMP4+CHIR99021+Vismodegib differentiation (leading to day 5 dermomyotome progenitors). Media was changed 24 hours for all steps.

[1] = tested on: hESC-derived primitive streak; test: Paraxial versus lateral/cardiac mesoderm specification from primitive streak; details: for paraxial mesoderm induction (qPCR day 2): ACF with DMH1 1 μM or LDN193189 250 nM, CDF with SB-505124 2 μM or A-83-01 1 μM, 24 hours
Method: Subsequently, day 1 anterior primitive streak was briefly washed (DMEM/F12) and differentiated towards day 2 paraxial mesoderm for 24 hours (1 μM A-83-01+3 μM CHIR99021+250 nM LDN-193189+20 ng/mL FGF2). Separately, day 1 mid primitive streak was differentiated towards day 2 lateral mesoderm for 24 hours (1 μM A-83-01+30 ng/mL BMP4+1 μM C59; with 2 μM SB-505124 sometimes used instead of A-83-01).
B) To assess whether FGF/ERK signaling was permissive for both paraxial and lateral/cardiac mesoderm specification, hESCs were differentiated into primitive streak for 24 hours, and then transferred into (i) A-83-01+DM3189 (“AD”; permissive for paraxial mesoderm) or (iii) A-83-01+BMP4+C59 (“AB+C59”; permissive for lateral/cardiac mesoderm) for 24 hours in the presence or absence of a FGF agonist (FGF2, 10-20 ng/mL), an FGFR inhibitor (PD173074, 100 nM) or a MAPK/ERK inhibitor (PD0325901, 500 nM) for 24 hours and qPCR for all experiments was conducted on day 2 (that is, after 48 total hours of hESC differentiation). To assess whether TGFβ signaling altered paraxial, intermediate and lateral/cardiac mesoderm specification, hESCs were differentiated into primitive streak for 24 hours, and then transferred into (ii) DM3189+FGF2 (“DF”; permissive for paraxial mesoderm) or (iv) BMP4+C59 (“B+C59”; permissive for lateral/cardiac mesoderm) for 24 hours in the presence of a TGFβ agonist (Activin, 10-25 ng/mL) or a TGFβR inhibitor (A-83-01, 1 μM) for 24 hours or (v) BMP4 (3 ng/mL)+FGF2 (20 ng/mL) (“B3F20”) for 24 hours in the presence of a TGFβ agonist (Activin, 3-25 ng/mL) or a TGFβR inhibitor (A-83-01, 1 μM) and qPCR for all experiments was conducted on day 2 (that is, after 48 total hours of hESC differentiation). […] Therefore, hESCs were differentiated towards primitive streak for 24 hours, and then subsequently transferred into (i) A-83-01+CHIR99021+FGF2 (ACF) in the presence or absence of one of two BMPR inhibitors (DMH1, 1 μM or LDN193189, 250 nM) for 24 hours and qPCR was conducted on day 2. Alternately, hESC-derived PS was transferred into (ii) CHIR99021+DM3189+FGF2 (CDF) for 24 hours in the presence or absence of a TGFβ agonist (25 ng/mL Activin) or one of two TGFβR inhibitors (SB-505124, 2 μM or A-83-01, 1 μM) for 24 hours and qPCR was conducted on day 2. […] E) To test the role of FGF in lateral mesoderm induction (on day 2 of hESC differentiation), NKX2.5-GFP hESCs were differentiated into mid primitive streak for 24 hours, and then were treated with BMP4+C59+SB505124 in the presence of an FGF agonist (FGF2, 20-50 ng/mL) or a FGFR inhibitor (PD173074, 100 nM) or a MAPK/ERK inhibitor (PD0325901, 500 nM) for 24 hours, and then all cultures were treated with BMP4+C59+SB505124+FGF2 for 24 hours more before being harvested on day 3 for FACS.

hESCs = test: Primitive streak (PS) induction from hESCs, qPCR
Method: As aforementioned, after overnight plating, hPSCs were briefly washed (with DMEM/F12) and then differentiated into either anterior primitive streak (30 ng/mL Activin A+4 μM CHIR99021+20 ng/mL FGF2+100 nM PIK90; for subsequent paraxial mesoderm induction) or mid primitive streak ([…] Activin A+40 ng/mL BMP4+6 μM CHIR99021+20 ng/mL FGF2+100 nM PIK90; for subsequent cardiac mesoderm induction) for 24 hrs.
Total cDNA was diluted 1:10-1:30 in H2O and qPCR was performed with the SensiFAST SYBR Lo-ROX Kit (Bioline) with 10 μL qPCR reactions per well in a 384-well plate: 5.0 μL 2× qPCR Master Mix+4.6 μL cDNA (totaling ˜120 ng of cDNA)+0.4 μL of 10 μM primer stock (5 μM forward+5 μM reverse primers). In general, gene-specific primer pairs were tested for (1) specificity of amplicon amplification (only one peak on a dissociation curve) and (2) linearity of amplicon amplification (linear detection of gene expression in cDNA samples serially diluted seven times over two orders of magnitude, with 90-110% efficiency of amplification deemed acceptably linear). After qPCR plates were prepared by arraying sample-specific cDNAs and gene-specific primers, they were sealed and briefly centrifuged (5 mins). 384-well qPCR plates and their adhesive sealing sheets were obtained from Thermo (AB1384 and AB0558, respectively). qPCR plates were run on a 7900HT Fast Real-Time PCR System (Applied Biosystems) with the following cycling parameters: initial dissociation (95° C., 2 mins) followed by 40 cycles of amplification and SYBR signal detection (95° C. dissociation, 5 seconds; 60° C. annealing, 10 seconds; followed by 72° C. extension, 30 seconds), with a final series of steps to generate a dissociation curve at the end of each qPCR run. During qPCR data analysis, the fluorescence threshold to determine Ct values was set at the linear phase of amplification; other qPCR data analysis methods including qPCR heatmap generation using the GenePattern platform (Broad Institute) were described previously by Loh et al., 2014, the disclosure of which is incorporated herein by reference in its entirety.
E) To assess whether inducing PS in the presence of TGFβ signaling altered its downstream potential to form different kinds of mesoderm, (i) H7 hESCs were differentiated into PS with CHIR99021+FGF2+PIK90 (CFK) for 24 hours in the presence or absence of increasing amounts of Activin (10-100 ng/mL), and then were transferred into paraxial mesoderm induction conditions (A-83-01+CHIR99021+DM3189+FGF2) for 24 hrs, and qPCR was conducted or (ii) H7 hESCs were differentiated into PS with BMP4 (10 ng/mL)+CHIR99021+FGF2+PIK90 (B10CFK) for 24 hours in the presence or absence of increasing amounts of Activin (10-100 ng/mL), and then were transferred into lateral/cardiac mesoderm inductions (A-83-01+BMP4+C59) for 24 hours and qPCR was conducted. […] F) To assess whether inducing PS in the presence of BMP signaling altered its downstream potential to form different kinds of mesoderm, H7 hESCs were differentiated into PS with Activin (10 ng/mL)+CHIR99021+FGF2+PIK90 (A10CFK) for 24 hours in the presence of absence of increasing amounts of BMP4 (1-40 ng/mL), and then were (i) transferred into paraxial mesoderm induction conditions (A-83-01+CHIR99021+DM3189+FGF2) for 24 hrs, and qPCR was conducted or were (ii) transferred into lateral/cardiac mesoderm inductions (A-83-01+BMP4+C59) for 24 hours and qPCR was conducted. […] G) H7 hESCs were differentiated into anterior primitive streak (30 ng/mL Activin+4 μM CHIR99021+20 ng/mL FGF2+100 nM PIK90) in the presence or absence of BMP4 (10 ng/mL) for 24 hours, and then transferred into paraxial mesoderm induction conditions for 24 hours before TBX6 immunostaining was conducted. […]

CC1(C)CC=C(C#Cc2ccccc2)c2cc(/C=C/c3ccc(C(=O)O)cc3)ccc21 [BMS493]
competence of lateral mesoderm for forelimb fate (lateral mesoderm): incompetent to subsequently assume a forelimb fate

Cl.c1ccc2c(-c3cnn4cc(-c5ccc(N6CCNCC6)cc5)cnc34)ccnc2c1 [LDN193189, 4-[6-[4-(1-Piperazinyl)phenyl]pyrazolo[1,5-a]pyrimidin-3-yl]-quinoline hydrochloride]
early somite marker expression (qPCR day 3) (day 2 paraxial mesoderm; CPR with DM3189 250 nM): permissive for expression of early somite markers
paraxial mesoderm induction (qPCR day 2) [1]: serve to induce paraxial mesoderm
PS formation and anterior-posterior patterning (hESCs; ACFK with LDN193189 250 nM or BMP4 3-100 ng/mL): fully abolished PS formation

Cc1ccc(C2=CCC(C)(C)c3ccc(C#Cc4ccc(C(=O)O)cc4)cc32)cc1 [AGN193109]
competence of lateral mesoderm for forelimb fate (lateral mesoderm): incompetent to subsequently assume a forelimb fate

CC(C)Oc1ccc(-c2cnc3c(-c4ccnc5ccccc45)cnn3c2)cc1 [DMH1, 4-[6-[4-(1-Methylethoxy)phenyl]pyrazolo[1,5-a]pyrimidin-3-yl]-quinoline]
paraxial mesoderm induction (qPCR day 2) [1]: serve to induce paraxial mesoderm

CC1=C(/C=C/C(C)=C/C=C/C(C)=C/C(=O)O)C(C)(C)CCC1 [all-trans retinoic acid]
early somite marker expression (qPCR day 3) (day 2 paraxial mesoderm; ACDP with RA 0.5-2 μM): dispensable for the expression of early somite markers
early somite marker expression (qPCR day 3) (day 2 paraxial mesoderm; ACDP with RA 0.5-2 μM, listed as RA): dispensable for early somite formation
forelimb transcription factor TBX5 expression on D3 (lateral mesoderm; RA signaling activated for 24 hours during lateral mesoderm induction (D1-2)): paramount for lateral mesoderm to subsequently express key forelimb transcription factor TBX5

Cc1cccc(-c2nn(C(=S)Nc3ccccc3)cc2-c2ccnc3ccccc23)n1 [A-83-01, 3-(6-Methyl-2-pyridinyl)-N-phenyl-4-(4-quinolinyl)-1H-pyrazole-1-carbothioamide]
early somite marker expression (qPCR day 3) (day 2 paraxial mesoderm; CDPR with A-83-01 1 μM): permissive for expression of early somite markers
paraxial mesoderm induction (qPCR day 2) [1]: serve to induce paraxial mesoderm
NKX2.5-GFP+ cardiac mesoderm induction (FACS day 3) ([1]; BMP4 (50 ng/mL)+C59, 48 hours, SB-505124 2 μM or A-83-01 1 μM, P<0.01): increased NKX2.5-GFP^+ cardiac mesoderm induction
PS differentiation (hESCs; CHIR99021+20 ng/mL FGF2+100 nM PIK90 with 2 μM SB-505124 or 1 μM A-83-01): strongly impairs PS differentiation

B1: WNT3A: Wnt agonist, WNT family ligand (protein, UniProt P56704 19-352, looked up)
Protein Wnt-3a: SYPIWWSLAVGPQYSSLGSQPILCASIPGLVPKQLRFCRNYVEIMPSVAEGIKIGIQECQHQFRGRRWNCTTVHDSLAIFGPVLDKATRESAFVHAIASAGVAFAVTRSCAEGTAAICGCSSRHQGSPGKGWKWGGCSEDIEFGGMVSREFADARENRPDARSAMNRHNNEAGRQAIASHMHLKCKCHGLSGSCEVKTCWWSQPDFRAIGDFLKDKYDSASEMVVEKHRESRGWVETLRPRYTYFKVPTERDLVYYEASPNFCEPNPETGSFGTRDRTCNVSSHGIDGCDLLCCGRGHNARAERRREKCRCVFHWCCYVSCQECTRVYDVHTCK
PS marker expression (qPCR) (hESCs; 24 hours in A3B3F20, 300 ng/mL WNT3A or 0.5-8 μM CHIR99021): broadly induces both anterior (TBX6) and mid/posterior (FOXF1, MESP1) PS markers
